Like-named read-outs stand apart in the source and are kept apart here.
How the values were obtained:
[1] = tested on: Aspergillus niger (An) ATCC 6275; experiment: Challenge Test (artificial contamination) of cosmetic formula; assay type: cell-based; settings: 22° C., chlorhexidine digluconate 0.3%, gingerone 2%
Excerpt: (§1) 5 pure microorganism cultures are used.

[2] = tested on: Candida albicans (Ca) ATCC 10231; experiment: as above; assay type: cell-based; settings: 22° C., chlorhexidine digluconate 0.3%, gingerone 2%; for Log reduction number after 7 days of contact, relative to the control, C. albicans: 1st formula O/W emulsion, Amt weight %: phenoxyethanol 1%, sodium benzoate 0.6%; for Log reduction number after 7 days of contact, relative to the control, Candida albicans: Amt weight %: sodium benzoate 0.6%
Excerpt: as §1

[3] = tested on: Enterococcus faecalis (Ef) ATCC 33186; experiment: as above; assay type: cell-based; settings: 22° C., chlorhexidine digluconate 0.3%, gingerone 2%
Excerpt: as §1

[4] = tested on: Escherichia coli (Ec) ATCC 8739; experiment: as above; assay type: cell-based; settings: 22° C., chlorhexidine digluconate 0.3%, gingerone 2%
Excerpt: as §1

[5] = tested on: Enterococcus faecalis (ATCC 33186); experiment: Action kinetics in broth; assay type: cell-based; settings: TS broth pH 5.2±0.3, 35° C., gingerone 2%, sodium benzoate 3.3%, chlorhexidine digluconate 2.2%
Method: (§2) The object of this example is to distinguish a compound according to the invention (gingerone) from the preserving agents conventionally used for protecting cosmetic formulations against microbial contamination, as regards the action kinetics.
(§3) The solutions are prepared in Trypto-casein-soya (TS) broth for the bacteria and in Sabouraud broth for the yeast. These solutions are adjusted to pH 5.2±0.3.
(§4) For each microbial solution, a growth control consisting of the appropriate culture medium alone is prepared.
(§5) The solutions in TS broth (36 ml) are inoculated separately with each of the bacteria (4 ml of microbial suspension) to a final content of 10^6 cfu/ml of mixture.
(§6) The inoculated samples are then placed in an incubator-agitator at 35° C.±2° C. Samples are taken after 6 hours, 24 hours, 48 hours, 72 hours and 7 days. Decimal dilutions are then prepared in Eugon LT100 broth. These dilutions are left for 30 minutes±15 minutes at 25° C. in order to neutralize the preserving agents, and are then double-seeded on the surface of Petri dishes containing Eugon LT100 agar.
(§7) The Petri dishes are then incubated in an oven at 35° C.±2° C. for a variable time depending on the strain concerned: • 48 hours; S. aureus; • 5 days: E. faecalis and C. albicans.
(§8) The results are expressed for each solution, each strain and each contact time as the number of cfu/ml of stock solution.

[6] = tested on: Staphylococcus aureus (ATCC 6538); experiment: Action kinetics in broth; assay type: cell-based; settings: TS broth pH 5.2±0.3, 35° C., gingerone 2%, sodium benzoate 3.3%, chlorhexidine digluconate 2.2%
Method: as §2, §3, §4, §5, §6, §7, §8

[7] = tested on: Candida albicans (ATCC 10231); experiment: Action kinetics in broth; assay type: cell-based; settings: Sabouraud broth pH 5.2±0.3, 35° C., gingerone 2%, sodium benzoate 3.3%, chlorhexidine digluconate 2.2%
Method: as §2, §3, §4
The solutions in Sabouraud broth (36 ml) are inoculated with the yeast (4 ml of suspension) to a final content of 10^6 cfu/ml.
as §6, §7, §8

[8] = cited from earlier work
[9] = tested on: Pseudomonas aeruginosa (Pa) ATCC 19429; experiment: Challenge Test (artificial contamination) of cosmetic formula; settings: 22° C., chlorhexidine digluconate 0.3%, gingerone 2%
Method: The antimicrobial efficacy of a compound of formula (I) was evaluated via the Challenge Test or artificial contamination method.
The method of the challenge test consists of an artificial contamination of the sample with collection microbial strains (bacteria, yeasts and moulds) and evaluation of the number of revivable microorganisms seven days after the inoculation.
The gram-negative bacteria (Escherichia coli and Pseudomonas aeruginosa), gram-positive bacteria (Enterococcus faecalis), yeast (Candida albicans) and mould (Aspergillus niger) are seeded in the subculturing medium, respectively, the day before the inoculation for the bacteria and the yeast, and five days before the inoculation for the mould.
After homogenizing the microbial suspension, 0.2 ml of inoculum is introduced into each pill bottle (the suspensions are used pure: between 1×10^8 and 3×10^8 cfu per ml) and the microbial suspension in the 20 g of product (=cosmetic formula) is homogenized thoroughly using a spatula.
The content of microorganisms present in the product corresponds after homogenization to a concentration of 10^6 microorganisms per gram of product, i.e. inoculation to 1% of an inoculum containing 10^8 microorganisms per ml.
After 7 days of contact time between the microorganisms and the product at 22° C.±2° C. and in darkness, decimal dilutions are performed and the number of revivable microorganisms remaining in the product is counted.

[10] = 1st formula O/W emulsion, Amt weight %: phenoxyethanol 1%, sodium benzoate 0.6%
[11] = 2nd formula lotion (pH 7 ± 0.2), Amt weight %: sodium benzoate 0.6%, phenoxyethanol 1%
[12] = 3rd formula O/W emulsion, Amt weight %: sodium benzoate 0.6%
[13] = 2nd formula lotion (pH 7 ± 0.2), phenoxyethanol 1%
[14] = contact time 0 hours, first series
[15] = contact time 0 hours, second series of Table 1
[16] = contact time 6 hours, first series
[17] = contact time 6 hours, second series of Table 1
[18] = contact time 24 hours, first series
[19] = contact time 24 hours, second series of Table 1
[20] = contact time 48 hours, first series
[21] = contact time 48 hours, second series of Table 1
[22] = contact time 72 hours, first series
[23] = contact time 72 hours, second series of Table 1
[24] = contact time 168 hours, first series
[25] = contact time 168 hours, second series of Table 1

Structure (SMILES): O=C([O-])c1ccccc1.[Na+] [Sodium benzoate]
- Log reduction number after 7 days of contact, relative to the control, A. niger [1, 10]: 0.5 Log
- Log reduction number after 7 days of contact, relative to the control, A. niger [1, 11]: <0.5 Log
- Log reduction number after 7 days of contact, relative to the control, A. niger [1, 12]: 3 Log
- Log reduction number after 7 days of contact, relative to the control, C. albicans [2]: 0 Log
- Log reduction number after 7 days of contact, relative to the control, Candida albicans [2, 13]: <0.5 Log
- Log reduction number after 7 days of contact, relative to the control, Candida albicans ([2]; 3rd formula O/W emulsion): >4 Log
- Log reduction number after 7 days of contact, relative to the control, E. faecalis [3, 10]: 0.6 Log
- Log reduction number after 7 days of contact, relative to the control, E. faecalis [3, 11]: 1.4 Log
- Log reduction number after 7 days of contact, relative to the control, E. faecalis [3, 12]: >4 Log
- Log reduction number after 7 days of contact, relative to the control, E. coli [4, 10]: 0.3 Log
- Log reduction number after 7 days of contact, relative to the control, E. coli [4, 11]: 0.7 Log
- Log reduction number after 7 days of contact, relative to the control, E. coli [4, 12]: >4 Log
- Number of cfu counted after strain/solution contact time, Enterococcus faecalis ([5]; contact time 0 hours): 2.5 × 10^6 cfu/ml
- Number of cfu counted after strain/solution contact time, Enterococcus faecalis ([5]; contact time 6 hours): 4.4 × 10^5 cfu/ml
- Number of cfu counted after strain/solution contact time, Enterococcus faecalis ([5]; contact time 24 hours): 7.0 × 10^2 cfu/ml
- Number of cfu counted after strain/solution contact time, Enterococcus faecalis ([5]; contact time 48 hours): <10 cfu/ml
- Number of cfu counted after strain/solution contact time, Enterococcus faecalis ([5]; contact time 72 hours): <10 cfu/ml
- Number of cfu counted after strain/solution contact time, Enterococcus faecalis ([5]; contact time 168 hours): <10 cfu/ml
- Number of cfu counted after strain/solution contact time, Staphylococcus aureus [6, 14]: 1.7 × 10^6 cfu/ml
- Number of cfu counted after strain/solution contact time, Staphylococcus aureus [6, 15]: 2.5 × 10^6 cfu/ml
- Number of cfu counted after strain/solution contact time, Staphylococcus aureus [6, 16]: <10 cfu/ml
- Number of cfu counted after strain/solution contact time, Staphylococcus aureus [6, 17]: <10 cfu/ml
- Number of cfu counted after strain/solution contact time, Staphylococcus aureus [6, 18]: <10 cfu/ml
- Number of cfu counted after strain/solution contact time, Staphylococcus aureus [6, 19]: <10 cfu/ml
- Number of cfu counted after strain/solution contact time, Staphylococcus aureus [6, 20]: <10 cfu/ml
- Number of cfu counted after strain/solution contact time, Staphylococcus aureus [6, 21]: <10 cfu/ml
- Number of cfu counted after strain/solution contact time, Staphylococcus aureus [6, 22]: <10 cfu/ml
- Number of cfu counted after strain/solution contact time, Staphylococcus aureus [6, 23]: <10 cfu/ml
- Number of cfu counted after strain/solution contact time, Staphylococcus aureus [6, 24]: <10 cfu/ml
- Number of cfu counted after strain/solution contact time, Staphylococcus aureus [6, 25]: <10 cfu/ml
- Number of cfu counted after strain/solution contact time, Candida albicans ([7]; contact time 0 hours): 2.9 × 10^6 cfu/ml
- Number of cfu counted after strain/solution contact time, Candida albicans ([7]; contact time 6 hours): <10 cfu/ml
- Number of cfu counted after strain/solution contact time, Candida albicans ([7]; contact time 24 hours): <10 cfu/ml
- Number of cfu counted after strain/solution contact time, Candida albicans ([7]; contact time 48 hours): <10 cfu/ml
- Number of cfu counted after strain/solution contact time, Candida albicans ([7]; contact time 72 hours): <10 cfu/ml
- Number of cfu counted after strain/solution contact time, Candida albicans ([7]; contact time 168 hours): <10 cfu/ml

Structure (SMILES): [H]/N=C(\N/C(=N/[H])NCCCCCCNC(=N)NC(=N)Nc1ccc(Cl)cc1)Nc1ccc(Cl)cc1 [chlorhexidine]
- pKa ([8]; stated in the conclusion of Example 2, no source): 10.3

Structure (SMILES): COc1cc(C)ccc1O [2-methoxy-4-methylphenol]
- pKa ([8]; value given in the literature): 10.27

Structure (SMILES): N=C(NCCCCCCNC(=N)NC(=N)Nc1ccc(Cl)cc1)NC(=N)Nc1ccc(Cl)cc1.O=C(O)[C@H](O)[C@@H](O)[C@H](O)[C@H](O)CO.O=C(O)[C@H](O)[C@@H](O)[C@H](O)[C@H](O)CO [Chlorhexidine digluconate]
- Log reduction number after 7 days of contact, relative to the control, A. niger [1, 10]: 0.4 Log
- Log reduction number after 7 days of contact, relative to the control, A. niger [1, 11]: 0.4 Log
- Log reduction number after 7 days of contact, relative to the control, A. niger [1, 12]: 2.3 Log
- Log reduction number after 7 days of contact, relative to the control, C. albicans [2]: 0.3 Log
- Log reduction number after 7 days of contact, relative to the control, Candida albicans [2, 13]: 3 Log
- Log reduction number after 7 days of contact, relative to the control, Candida albicans ([2]; 3rd formula O/W emulsion): >4 Log
- Log reduction number after 7 days of contact, relative to the control, E. faecalis [3, 10]: 0.9 Log
- Log reduction number after 7 days of contact, relative to the control, E. faecalis [3, 11]: 1.3 Log
- Log reduction number after 7 days of contact, relative to the control, E. faecalis [3, 12]: 1.8 Log
- Log reduction number after 7 days of contact, relative to the control, E. coli [4, 10]: >4 Log
- Log reduction number after 7 days of contact, relative to the control, E. coli [4, 11]: 0.8 Log
- Log reduction number after 7 days of contact, relative to the control, E. coli [4, 12]: >4 Log
- Number of cfu counted after strain/solution contact time, Enterococcus faecalis ([5]; contact time 0 hours): 2.5 × 10^6 cfu/ml
- Number of cfu counted after strain/solution contact time, Enterococcus faecalis ([5]; contact time 6 hours): <10 cfu/ml
- Number of cfu counted after strain/solution contact time, Enterococcus faecalis ([5]; contact time 24 hours): <10 cfu/ml
- Number of cfu counted after strain/solution contact time, Enterococcus faecalis ([5]; contact time 48 hours): <10 cfu/ml
- Number of cfu counted after strain/solution contact time, Enterococcus faecalis ([5]; contact time 72 hours): <10 cfu/ml
- Number of cfu counted after strain/solution contact time, Enterococcus faecalis ([5]; contact time 168 hours): <10 cfu/ml
- Number of cfu counted after strain/solution contact time, Staphylococcus aureus [6, 14]: 1.7 × 10^6 cfu/ml
- Number of cfu counted after strain/solution contact time, Staphylococcus aureus [6, 15]: 2.5 × 10^6 cfu/ml
- Number of cfu counted after strain/solution contact time, Staphylococcus aureus [6, 16]: <10 cfu/ml
- Number of cfu counted after strain/solution contact time, Staphylococcus aureus [6, 17]: <10 cfu/ml
- Number of cfu counted after strain/solution contact time, Staphylococcus aureus [6, 18]: <10 cfu/ml
- Number of cfu counted after strain/solution contact time, Staphylococcus aureus [6, 19]: <10 cfu/ml
- Number of cfu counted after strain/solution contact time, Staphylococcus aureus [6, 20]: <10 cfu/ml
- Number of cfu counted after strain/solution contact time, Staphylococcus aureus [6, 21]: <10 cfu/ml
- Number of cfu counted after strain/solution contact time, Staphylococcus aureus [6, 22]: <10 cfu/ml
- Number of cfu counted after strain/solution contact time, Staphylococcus aureus [6, 23]: <10 cfu/ml
- Number of cfu counted after strain/solution contact time, Staphylococcus aureus [6, 24]: <10 cfu/ml
- Number of cfu counted after strain/solution contact time, Staphylococcus aureus [6, 25]: <10 cfu/ml
- Number of cfu counted after strain/solution contact time, Candida albicans ([7]; contact time 0 hours): 2.9 × 10^6 cfu/ml
- Number of cfu counted after strain/solution contact time, Candida albicans ([7]; contact time 6 hours): <10 cfu/ml
- Number of cfu counted after strain/solution contact time, Candida albicans ([7]; contact time 24 hours): <10 cfu/ml
- Number of cfu counted after strain/solution contact time, Candida albicans ([7]; contact time 48 hours): <10 cfu/ml
- Number of cfu counted after strain/solution contact time, Candida albicans ([7]; contact time 72 hours): <10 cfu/ml
- Number of cfu counted after strain/solution contact time, Candida albicans ([7]; contact time 168 hours): <10 cfu/ml
- Log reduction number after 7 days of contact, relative to the control, P. aeruginosa [9, 10]: 0.3 Log
- Log reduction number after 7 days of contact, relative to the control, P. aeruginosa [9, 11]: 0.5 Log
- Log reduction number after 7 days of contact, relative to the control, P. aeruginosa [9, 12]: 0 Log

— patent US20120269739A1, “COMPOSITION, USE, AND PRESERVATION METHOD” (L'OREAL, priority 2009, published 2012)
